{
  "source": "patent US11186603B2",
  "about": "“Heparan sulfate glycomimetic compounds and their pharmaceutical and cosmeceutical uses” (VICTORIA LINK LIMITED, priority 2017, dated 2021)",
  "molecules": {"B1": {"name": "TGF-β2: Transforming growth Factor β2, Sigma Aldrich, positive control (protein, UniProt P61812 303-414, looked up)", "Transforming growth factor …": "ALDAAYCFRNVQDNCCLRPLYIDFKRDLGWKWIHEPKGYNANFCAGACPYLWSSDTQHSRVLSLYNTINPEASASPCCVSQDLEPLTILYYIGKTPKIEQLSNMIVKSCKCS"}},
  "key": {"[1]": {"test_system": "human dermal fibroblast cell line, CRL2071", "experiment": "Production of collagen type I (ELISA)", "type": "cell-based", "description": "(§1) Cells from the human dermal fibroblast cell line, CRL2071 (passages 12-14), obtained from normal breast skin of a person, were allowed to attach for 6-8 hours before the addition of the test compounds. After 72 h of exposure to the test articles the media was removed, cells counted and the cell-associated fraction extracted. The media and cell-associated fraction were analysed for the concentration of collagen type I using a Chondrex Human type I Collagen Detection Kit ELISA (Cat #6021).\nAfter complete dissolution the solutions were sterile filtered through a […] syringe filter and kept at 4° C. until use. Prior to each experiment dilutions were freshly prepared by diluting to 100 nM, 1 μM or 10 μM in cell-specific media.\n(§2) The test compounds, positive controls and no treatment media were added to the flasks (2.5 ml/flask) and cells were incubated for 72 h before removal of the supernatant. After removal of the supernatant, cell monolayers were trypsinsed with 2.5 ml of 0.025% trypsin/[…] in PBS to each flask. After cell detachment (7-10 min), 1 ml of the cell/trypsin mixture was added to a 20 ml counting vial containing 9 ml of normal saline. The cells were quantitated with a Coulter Counter Z2.\n(§3) In some treatments cells were found floating. They were collected, counted and subjected to viability testing using 1% trypan blue staining. The remaining 1.5 ml of trypsin/cell mixture was sonicated with a Branson tip-probed sonicator for 1 min, setting 6 before centrifugation at 10,000 rpm for 10 min. The supernatant was removed and used in the collagen ELISA for the quantitation of cell-associated collagen."}, "[2]": {"test_system": "human dermal fibroblast cell line, CRL2071", "experiment": "Production of hyaluronan (ELISA)", "type": "cell-based", "conditions": "72 h; for ng Hyaluronan/1 × 10^6 cells (Mean ± SD): liberated hyaluronan (>6400Da); for Hyaluronan as % of No Treatment Control (Mean ± SD): liberated", "description": "as §1, with “hyaluronan” for “collagen type I”, “Hyaluronan” for “Chondrex Human type I Collagen”, “ELISA.” for “ELISA (Cat #6021).”\nas §2\nas §3, with “hyaluronan” for “collagen”, “hyaluronan.” for “collagen.”"}, "[3]": {"molecular_target": "T1, cellular tyrosinase, human primary epidermal melanocyte cell line (PCS-200-013) (Homo sapiens, UniProt P14679)", "T1 sequence (P14679 19-529)": "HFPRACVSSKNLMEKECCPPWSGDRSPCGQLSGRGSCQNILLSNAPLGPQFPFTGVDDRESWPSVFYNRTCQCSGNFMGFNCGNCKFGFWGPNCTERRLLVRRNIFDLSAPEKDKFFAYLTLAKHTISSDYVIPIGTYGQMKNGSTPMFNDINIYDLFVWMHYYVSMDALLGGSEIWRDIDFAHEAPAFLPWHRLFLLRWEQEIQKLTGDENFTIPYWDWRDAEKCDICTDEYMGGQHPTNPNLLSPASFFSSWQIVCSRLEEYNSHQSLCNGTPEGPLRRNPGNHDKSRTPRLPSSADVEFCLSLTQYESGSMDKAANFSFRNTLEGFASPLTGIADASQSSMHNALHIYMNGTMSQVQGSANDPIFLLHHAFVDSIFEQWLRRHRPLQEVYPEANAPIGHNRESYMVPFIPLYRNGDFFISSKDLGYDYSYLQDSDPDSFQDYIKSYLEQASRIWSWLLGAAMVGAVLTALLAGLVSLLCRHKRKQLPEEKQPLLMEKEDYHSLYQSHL"}, "testicular hyaluronidase": {"test_system": "testicular hyaluronidase", "experiment": "Inhibition of hyaluronidase (turbidimetric)", "type": "biochemical", "description": "The heparanase inhibitors were incubated with testicular hyaluronidase in the presence of hyaluronan and after incubation the amount of hyaluronic acid remaining was quantitated. Hyaluronidase activity was measured according to the method of Tolksdorf [Tolksdorf, S. & McCready, M. H., The turbometric determination of hyaluronidase, The Journal of Laboratory and Clinical Medicine, 1949, 34(1):74-89]. Hyaluronic acid is measured by its ability to form turbidity with an acid albumin solution. […] One unit is based on the change in absorbency (turbidity) at 540 nm of an internal USP standard. All tubes were placed in a boiling water bath for 5 min and then cooled to room temperature. On cooling 9.0 ml of albumin reagent was added and tubes were allowed to stand for 10 min. Readings of absorbance at 540 nm in a Pharmacia Novatec Model II were taken. The A540nm was plotted versus the hyaluronic acid concentration (mg) to form a standard curve."}, "[4]": {"conditions": "cell-associated, 10 μg/ml, 72 h"}, "[5]": {"conditions": "cell-associated, 20 ng/ml, 72 h"}},
  "note": "Several values for one entry are separate records, joined by “and”; a condition that tells them apart may be missing. Equal values may be shown once. Read-outs that look alike come from different tables or passages of the source.",
  "data": [
    {"molecule": "C=C[C@@](C)(/C=C/c1ccc(O)cc1)CCC=C(C)C", "note": "[Bakuchiol, reference compound]", "values": [
      {"measurement": "Collagen as % of No Treatment Control (Mean ± SD), Cell-associated", "setting": "[1]; cell-associated, 5 μg/ml, 72 h", "result": "1,085 ± 60%"},
      {"measurement": "μg collagen (Mean ± SD), Cell-Associated Collagen Type 1", "setting": "[1]; cell-associated, 5 μg/ml, 72 h", "result": "0.28 ± 0.02", "unit": "µg"},
      {"measurement": "Collagen as % of No Treatment Control (Mean ± SD), Cell-associated", "setting": "[1]; [4]", "result": "600 ± 348", "unit": "%"},
      {"measurement": "μg collagen (Mean ± SD), Cell-Associated Collagen Type 1", "setting": "[1]; [4]", "result": "0.29 ± 0.01", "unit": "µg"},
      {"measurement": "Collagen as % of No Treatment Control (Mean ± SD), Liberated", "setting": "[1]; 5 μg/ml, 72 h", "result": "43 ± 17", "unit": "%"},
      {"measurement": "μg collagen (Mean ± SD), Liberated Collagen Type 1", "setting": "[1]; 5 μg/ml, 72 h", "result": "0.02 ± 0.01", "unit": "µg"},
      {"measurement": "Collagen as % of No Treatment Control (Mean ± SD), Liberated", "setting": "[1]; 10 μg/ml, 72 h", "result": "357 ± 20", "unit": "%"},
      {"measurement": "μg collagen (Mean ± SD), Liberated Collagen Type 1", "setting": "[1]; 10 μg/ml, 72 h", "result": "0.15 ± 0.01", "unit": "µg"}
    ]},
    {"molecule": "CC1=C(/C=C/C(C)=C/C=C/C(C)=C/CO)C(C)(C)CCC1", "note": "[Retinol, reference compound]", "values": [
      {"measurement": "ng Hyaluronan/1 × 10^6 cells (Mean ± SD)", "setting": "[2]; 5 μg/ml", "result": "576 ± 0 ng Hyaluronan/1 × 10^6 cells"},
      {"measurement": "Hyaluronan as % of No Treatment Control (Mean ± SD)", "setting": "[2]; 5 μg/ml", "result": "1,346 ± 0%"}
    ]},
    {"molecule": "O=C(CCCCCCCNC(=O)CCOCC(COCCC(=O)NCCCCCCCC(=O)NCCCCCCOC1OC(COS(=O)(=O)[O-])C(OS(=O)(=O)[O-])C(OS(=O)(=O)[O-])C1OS(=O)(=O)[O-])(COCCC(=O)NCCCCCCCC(=O)NCCCCCCOC1OC(COS(=O)(=O)[O-])C(OS(=O)(=O)[O-])C(OS(=O)(=O)[O-])C1OS(=O)(=O)[O-])COCCC(=O)NCCCCCCCC(=O)NCCCCCCOC1OC(COS(=O)(=O)[O-])C(OS(=O)(=O)[O-])C(OS(=O)(=O)[O-])C1OS(=O)(=O)[O-])NCCCCCCOC1OC(COS(=O)(=O)[O-])C(OS(=O)(=O)[O-])C(OS(=O)(=O)[O-])C1OS(=O)(=O)[O-].[Na+].[Na+].[Na+].[Na+].[Na+].[Na+].[Na+].[Na+].[Na+].[Na+].[Na+].[Na+].[Na+].[Na+].[Na+].[Na+]", "note": "(stereo not drawn) [Compound 17d]", "values": [
      {"measurement": "inhibitory effect on tyrosinase activity (in words)", "setting": "[3]", "result": "significant inhibitory effect on tyrosinase activity"},
      {"measurement": "Tyrosinase inhibition as a % of the \"No Treatment\" control (Mean ± SD)", "setting": "[3]; 0.1 µM", "result": "0 ± 0", "unit": "%"},
      {"measurement": "Tyrosinase inhibition as a % of the \"No Treatment\" control (Mean ± SD)", "setting": "[3]; 1 μM", "result": "0 ± 0", "unit": "%"},
      {"measurement": "Tyrosinase inhibition as a % of the \"No Treatment\" control (Mean ± SD)", "setting": "[3]; 10 μM", "result": "44 ± 2", "unit": "%"},
      {"measurement": "Collagen as % of No Treatment Control (Mean ± SD), Cell-associated", "setting": "[1]", "result": "3,076 ± 803% and 5,116 ± 231%"},
      {"measurement": "μg collagen (Mean ± SD), Cell-Associated Collagen Type 1", "setting": "[1]", "result": "1.32 ± 0.35 µg and 2.20 ± 0.10 µg"},
      {"measurement": "Hyaluronidase inhibition as a % of the \"No Treatment\" control (Mean ± SD)", "setting": "testicular hyaluronidase; 100 nM", "result": "0 ± 0", "unit": "%"},
      {"measurement": "Hyaluronidase inhibition as a % of the \"No Treatment\" control (Mean ± SD)", "setting": "testicular hyaluronidase; 1 μM", "result": "0 ± 0", "unit": "%"},
      {"measurement": "Hyaluronidase inhibition as a % of the \"No Treatment\" control (Mean ± SD)", "setting": "testicular hyaluronidase; 10 μM", "result": "23 ± 1", "unit": "%"},
      {"measurement": "inhibition of testicular hyaluronidase (in words)", "setting": "testicular hyaluronidase; summary of Example 11", "result": "effective inhibitors of testicular hyaluronidase"}
    ]},
    {"molecule": "TGF-β1: Transforming growth Factor β1, Sigma Aldrich, positive control", "values": [
      {"measurement": "ng Hyaluronan/1 × 10^6 cells (Mean ± SD)", "setting": "[2]; 20 ng/ml", "result": "507 ± 68 ng Hyaluronan/1 × 10^6 cells"},
      {"measurement": "Hyaluronan as % of No Treatment Control (Mean ± SD)", "setting": "[2]; 20 ng/ml", "result": "1,186 ± 159%"},
      {"measurement": "Collagen as % of No Treatment Control (Mean ± SD), Cell-associated", "setting": "[1]; [5]", "result": "719 ± 57", "unit": "%"},
      {"measurement": "μg collagen (Mean ± SD), Cell-Associated Collagen Type 1", "setting": "[1]; [5]", "result": "0.31 ± 0.02", "unit": "µg"},
      {"measurement": "Collagen as % of No Treatment Control (Mean ± SD), Liberated", "setting": "[1]; 20 ng/ml, 72 h", "result": "2,852 ± 285%"},
      {"measurement": "μg collagen (Mean ± SD), Liberated Collagen Type 1", "setting": "[1]; 20 ng/ml, 72 h", "result": "1.23 ± 0.12", "unit": "µg"}
    ]},
    {"molecule": "B1", "values": [
      {"measurement": "Collagen as % of No Treatment Control (Mean ± SD), Cell-associated", "setting": "[1]; [5]", "result": "77 ± 9", "unit": "%"},
      {"measurement": "μg collagen (Mean ± SD), Cell-Associated Collagen Type 1", "setting": "[1]; [5]", "result": "0.03 ± 0.00", "unit": "µg"},
      {"measurement": "Collagen as % of No Treatment Control (Mean ± SD), Liberated", "setting": "[1]; 20 ng/ml, 72 h", "result": "446 ± 73", "unit": "%"},
      {"measurement": "μg collagen (Mean ± SD), Liberated Collagen Type 1", "setting": "[1]; 20 ng/ml, 72 h", "result": "0.19 ± 0.03", "unit": "µg"}
    ]}
  ]
}
